Data on five molecules can be found in PMC8193492, “Yeast Cell-Based Transport Assay for the Functional Characterization of Human 4F2hc-LAT1 and ‐LAT2, and LAT1 and LAT2 Substrates and Inhibitors” (Frontiers in Molecular Biosciences, 2021).

Each structure is given as a SMILES string. Values joined by “and” are separate entries in the source; they are usually repeats but may differ in a detail not shown here. Equal values may be shown once. Read-outs that look alike come from different tables or passages of the source. Some results are limits rather than exact numbers.

For assay [1], the target named is 4F2hc-LAT1. As to conditions: cited from earlier work; for IC50: read-out: 4F2hc-LAT1 IC50 of L-leucine uptake.
Assay [2] concerns the target T1, human 4F2hc-LAT2 (Homo sapiens, UniProt Q9UHI5).
T1 construct: expressed in transfected cells; host or cells: Pichia pastoris KM71H (pPICZB vector)
T1 sequence (Q9UHI5 1-535): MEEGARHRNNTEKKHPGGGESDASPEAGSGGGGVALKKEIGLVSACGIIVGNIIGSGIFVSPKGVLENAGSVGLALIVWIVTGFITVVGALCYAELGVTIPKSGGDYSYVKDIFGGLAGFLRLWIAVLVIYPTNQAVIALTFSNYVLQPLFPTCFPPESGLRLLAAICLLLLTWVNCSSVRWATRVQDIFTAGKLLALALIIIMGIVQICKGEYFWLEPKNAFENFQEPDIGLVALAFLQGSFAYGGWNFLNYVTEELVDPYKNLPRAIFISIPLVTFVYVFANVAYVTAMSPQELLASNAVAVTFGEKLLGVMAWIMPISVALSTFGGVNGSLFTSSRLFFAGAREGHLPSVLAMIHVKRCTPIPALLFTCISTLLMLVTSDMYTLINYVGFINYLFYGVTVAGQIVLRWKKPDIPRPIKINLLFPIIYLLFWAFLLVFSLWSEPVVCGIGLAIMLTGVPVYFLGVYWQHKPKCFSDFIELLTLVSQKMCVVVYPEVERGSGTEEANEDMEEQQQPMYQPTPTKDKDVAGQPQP
T1 sequence (P08195 1-529 partner): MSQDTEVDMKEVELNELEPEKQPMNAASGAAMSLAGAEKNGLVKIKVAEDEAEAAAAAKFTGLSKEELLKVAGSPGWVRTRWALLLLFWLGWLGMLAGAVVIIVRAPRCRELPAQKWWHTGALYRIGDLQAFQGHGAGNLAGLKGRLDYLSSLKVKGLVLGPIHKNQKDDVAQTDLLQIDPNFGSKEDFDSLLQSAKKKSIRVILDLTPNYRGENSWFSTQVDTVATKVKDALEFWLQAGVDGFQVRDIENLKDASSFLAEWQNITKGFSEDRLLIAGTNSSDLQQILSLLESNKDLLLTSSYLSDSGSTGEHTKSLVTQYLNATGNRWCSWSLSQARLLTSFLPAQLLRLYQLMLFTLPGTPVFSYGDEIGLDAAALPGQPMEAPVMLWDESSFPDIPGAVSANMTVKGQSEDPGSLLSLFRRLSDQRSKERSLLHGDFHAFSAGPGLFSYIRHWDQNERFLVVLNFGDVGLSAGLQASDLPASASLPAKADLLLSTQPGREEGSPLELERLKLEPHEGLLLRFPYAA
Put plainly: [3H]L-leucine radioligand transport assay, P. pastoris cells expressing 4F2hc-LAT2. The assay is classed as cell-based. As to conditions: P. pastoris KM71H cells, OD600 0.75, 0.1 µM [3H]L-leucine, 10 min uptake, 25°C; read-out: IC50 of L-leucine uptake, 4F2hc-LAT2 (this work).

Another assay concerns the target T2, human LAT2 (Homo sapiens, UniProt Q9UHI5).
T2 construct: expressed in transfected cells; host or cells: Pichia pastoris KM71H (pPICZB vector)
T2 sequence (Q9UHI5 1-535): T1 sequence (Q9UHI5 1-535)
Kind of assay: [3H]L-leucine radioligand transport assay, P. pastoris cells expressing LAT2. The assay is classed as cell-based. As to conditions: P. pastoris KM71H cells, OD600 0.75, 0.1 µM [3H]L-leucine, 10 min uptake, 25°C.

Assay [3] concerns the target T3, human LAT1 (Homo sapiens, UniProt Q01650). Kind of assay: cell-based.
Protocol: (§1) Resulting cells were resuspended in transport buffer (150 mM choline chloride, 1 mM MgCl2, 1 mM CaCl2, 10 mM Tris-HEPES, pH 7.4) containing 50% (v/v) glycerol and the OD600 was adjusted to 40. Cells were stored at −18°C until further use.
(§2) For transport studies, 1 ml of thawed P. pastoris cells (OD600 40) expressing the corresponding transporter were diluted in 50 ml transport buffer and pelleted by centrifugation (3,000 × g, 15 min, room temperature). The pellet was then washed by resuspending it in 50 mL transport buffer and by repeating the washing procedure (centrifugation and resuspension) two times. Finally, the cell pellet was resuspended in 2 ml of transport buffer and incubated for 20 min at 30°C under agitation (300 rpm, Multitron, Infors HT, Bottmingen, Switzerland). […] All transport experiments were performed in a reaction volume of 100 µL. […] The competitors were prepared in 100% (v/v) DMSO. The final DMSO concentration was always 0.5% (v/v), independently of which final substrate or inhibitor concentration was used in the assay. Control samples contained the same concentration of DMSO. Final OD600 values in uptake experiments were 0.75 for all cells (4F2hc-LAT1, LAT1, 4F2hc-LAT2 or LAT2 expressing cells) and untransformed P. pastoris KM71H cells. All transport reactions were done in 2 ml reaction tubes (Eppendorf, Hamburg, Germany) at 25°C under agitation (1,000 rpm, Thermomixer compact, Eppendorf, Hamburg, Germany). Uptakes were terminated after 10 min (uptake time) for all cells by adding 600 µL of pre-chilled transport buffer. Cells were rapidly separated from the buffer by transferring the stopped reactions on a 96-well 0.66 mm glass fiber filter plate (Corning FiltrEX, Corning, NY, United States) and vacuum filtration. Each well was washed with 2 ml of ice-cold transport buffer to remove free radioligand. The plate was then dried overnight at 37°C, and the backside was sealed with a BackSeal (PerkinElmer, Waltham, MA, United States). The trapped radioligand was released by addition of 200 µL scintillation cocktail (MicroScint 40, PerkinElmer, Waltham, MA, United States) to each well, and the plate topside was sealed with Topseal^TM-A Plus (PerkinElmer, Waltham, MA, United States), followed by incubation for 30 min at 25°C and 1,000 rpm (Thermomixer compact, Eppendorf, Hamburg, Germany). Counts were measured in each well for 2 min with a scintillation counter (TopCount NXT, PerkinElmer, Waltham, MA, United States).
(§3) Experiments were performed at least in triplicate. For data analysis, the signal of the untransformed P. pastoris cells was subtracted from the transporter signal to obtain the net transport signal. Data from three independent experiments were taken. […] Every experimental data point was then individually normalized using the corresponding upper plateau values (i.e., the fitted upper plateau value that corresponds to 100%). Single, normalized data points from the three independent experiments were averaged and a sigmoidal model curve was fitted to the data in order to obtain the IC50 values. Prism6 (GraphPad Software) was used for data analysis.
Assay [4] deals with 4F2hc-LAT1. As to conditions: host Oocytes, cited from earlier work.
A further assay concerns the target T4, human 4F2hc-LAT1 (Homo sapiens, UniProt Q01650).
T4 construct: expressed in transfected cells; host or cells: Pichia pastoris KM71H (pPICZB vector)
Kind of assay: [3H]L-leucine radioligand transport assay, P. pastoris cells expressing 4F2hc-LAT1. The assay is classed as cell-based.

The subject of assay [5] is 4F2hc-LAT1. Details: method as in Kim et al. (2008). As to conditions: host C6 cells; reference cell empty, line above: ref Kim et al. (2008); read-out: 4F2hc-LAT1 IC50 of L-leucine uptake; cited from earlier work.
Assay [6] addresses T1, human 4F2hc-LAT2. As to conditions: cited from earlier work; for IC50: host S2 cells, read-out: 4F2hc-LAT2 IC50 of L-leucine uptake.
Assay [7] concerns 4F2hc-LAT1. Details: method as in Yun et al. (2014). The following applies: host YD-38; ref Yun et al. (2014); read-out: 4F2hc-LAT1 IC50 of L-leucine uptake; cited from earlier work.
In assay [8] the test system is 4F2hc-LAT1. The following applies: host Saos2, read-out: 4F2hc-LAT1 IC50 of L-leucine uptake, cited from earlier work.
Assay [9] concerns 4F2hc-LAT1. Details: method as in Khunweeraphong et al. (2012). As to conditions: host HEK293; ref Khunweeraphong et al. (2012); read-out: 4F2hc-LAT1 IC50 of L-leucine uptake; cited from earlier work.
Assay [10] deals with 4F2hc-LAT1. Set-up: method as in Kim et al. (2008). As to conditions: host KB cells; ref Kim et al. (2008); read-out: 4F2hc-LAT1 IC50 of L-leucine uptake; cited from earlier work.
The test system of assay [11] is 4F2hc-LAT1. Set-up: method as in Kantipudi et al. (2020). The following applies: host Pichia pastoris, ref Kantipudi et al. (2020), cited from earlier work.
In assay [12] the test system is 4F2hc-LAT2. Details: method as in Kantipudi et al. (2020). The following applies: host Pichia pastoris, ref Kantipudi et al. (2020), cited from earlier work.
Assay [13] concerns 4F2hc-LAT2. Set-up: method as in Pineda et al. (1999). The following applies: host Oocytes; ref Pineda et al. (1999); cited from earlier work.
In assay [14] the target is T3, human LAT1. As to conditions: Pichia cells expressing the light subunits alone.
Protocol: as §1, §2, §3
Assay [15] concerns 4F2hc-LAT1. Set-up: method as in Häfliger et al. (2018). As to conditions: host HT-29; ref Häfliger et al. (2018); read-out: 4F2hc-LAT1 IC50 of L-leucine uptake; cited from earlier work.
Assay [16] has as its system 4F2hc-LAT1. Set-up: method as in Yothaisong et al. (2017). As to conditions: host KKU-100; ref Yothaisong et al. (2017); read-out: 4F2hc-LAT1 IC50 of L-leucine uptake; cited from earlier work.
The test system of assay [17] is 4F2hc-LAT1. Details: method as in Yothaisong et al. (2017). The following applies: host KKU-213; ref Yothaisong et al. (2017); read-out: 4F2hc-LAT1 IC50 of L-leucine uptake; cited from earlier work.
The test system of assay [18] is 4F2hc-LAT1. Details: method as in Yothaisong et al. (2017). As to conditions: host KKU-055; ref Yothaisong et al. (2017); read-out: 4F2hc-LAT1 IC50 of L-leucine uptake; cited from earlier work.
For assay [19], the system named is 4F2hc-LAT1. Details: method as in Häfliger et al. (2018). As to conditions: host 8505c; ref Häfliger et al. (2018); read-out: 4F2hc-LAT1 IC50 of L-leucine uptake; cited from earlier work.
In assay [20] the test system is 4F2hc-LAT1. Details: method as in Häfliger et al. (2018). As to conditions: host SW1736; ref Häfliger et al. (2018); read-out: 4F2hc-LAT1 IC50 of L-leucine uptake; cited from earlier work.
The mark [21] stands for this setting: P. pastoris KM71H cells, OD600 0.75, 0.1 µM [3H]L-leucine, 10 min uptake, 25°C, read-out: IC50 of L-leucine uptake, 4F2hc-LAT1 (this work).

T4 sequence (Q01650 whole entry, one chain of several): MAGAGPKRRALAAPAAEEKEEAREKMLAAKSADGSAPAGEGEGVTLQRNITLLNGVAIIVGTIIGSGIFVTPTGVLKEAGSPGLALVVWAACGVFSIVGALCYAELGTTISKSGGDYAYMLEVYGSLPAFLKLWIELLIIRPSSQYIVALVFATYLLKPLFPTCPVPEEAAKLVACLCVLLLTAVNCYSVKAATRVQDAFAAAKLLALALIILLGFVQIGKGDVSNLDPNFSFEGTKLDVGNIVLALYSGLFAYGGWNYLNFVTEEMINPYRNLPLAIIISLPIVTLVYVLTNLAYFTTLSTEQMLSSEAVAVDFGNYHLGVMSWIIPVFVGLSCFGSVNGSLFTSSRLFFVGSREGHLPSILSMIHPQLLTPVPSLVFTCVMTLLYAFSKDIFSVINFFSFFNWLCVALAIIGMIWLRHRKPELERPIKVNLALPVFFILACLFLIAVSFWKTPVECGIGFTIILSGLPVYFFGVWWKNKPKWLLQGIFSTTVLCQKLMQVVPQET
T3 sequence (Q01650 whole entry): as the sequence (Q01650 whole entry, one chain of several) above

By Ki is commonly meant a dissociation constant, usually derived from enzyme kinetics or from competition with a known ligand. One may read the IC50 as the concentration that gives 50% inhibition. The Km is the substrate concentration at which the rate is half of its maximum. Turning to `NC(Cc1cc(I)c(Oc2cc(I)c(O)c(I)c2)c(I)c1)C(=O)O` (stereo not shown) [T4, thyroxine], the Ki on 4F2hc-LAT1 [1] (host S2 cells, ref Morimoto et al. (2008), read-out: 4F2hc-LAT1 Ki of L-leucine uptake) is 115 ± 2 µM. Also, the IC50 was found to be 42 µM at human 4F2hc-LAT2 [2], 25 µM at human LAT2, 8 µM against human LAT1 [3] and 10 µM on human 4F2hc-LAT1. The values for the Km in the assay on 4F2hc-LAT1 [4] (ref Friesema et al. (2001)) and in the assay with 4F2hc-LAT1 [4] (ref Ritchie et al. (1999)) were 7.9 µM and 6.3 µM, respectively. For the same molecule, the “specificity for 4F2hc-LAT1 compared with 4F2hc-LAT2 (from IC50s)” value at human 4F2hc-LAT1 (P. pastoris cell assay) was “about four-times higher”.

With `N[C@@H](Cc1cc(I)c(Oc2ccc(O)c(I)c2)c(I)c1)C(=O)O` [T3, triiodothyronine], the Michaelis-Menten constant (Km) is 0.8 µM in the assay on 4F2hc-LAT1 [4] (ref Friesema et al. (2001)) and 1.8 µM in the assay with 4F2hc-LAT1 [4] (ref Ritchie et al. (1999)).

On to `NC1(C(=O)O)CC2CCC1C2` (stereo not shown) [BCH, 2-aminobicyclo-(2,2,1)-heptane-2-carboxylic acid], for which the IC50 with 4F2hc-LAT1 [5] is 73.1 ± 4.5 µM; at human 4F2hc-LAT2 [6] (ref Morimoto et al. (2008)) it was 315 ± 68.6 µM; in the assay on 4F2hc-LAT1 [7], 92.6 ± 8.9 µM; in the assay with 4F2hc-LAT1 [1] (host S2 cells, ref Morimoto et al. (2008)), 132 ± 27.8 µM; in the assay on 4F2hc-LAT1 [8] (ref Choi et al. (2017)), 72.2 ± 0.92 µM; with 4F2hc-LAT1 [8] (ref Kim et al. (2008)) it was 78.8 ± 3.5 µM. The IC50 in the assay with 4F2hc-LAT1 [9] was 78.3 ± 12.1 µM; at human 4F2hc-LAT2 [2] it was 195 µM; on human LAT2 it was 184 µM; against human LAT1 [3], 78 µM; in the assay with 4F2hc-LAT1 [10], 75.3 ± 6.7 µM; on human 4F2hc-LAT1 (setting [21]), 72 µM. The “specificity for 4F2hc-LAT1 compared with 4F2hc-LAT2 (from IC50s)” value at human 4F2hc-LAT1 (P. pastoris cell assay) is “about 2.7 fold”.

As for `CC(C)C[C@H](N)C(=O)O` [L-leucine], the half-inhibitory concentration (IC50) in the assay on 4F2hc-LAT1 [11] (read-out: 4F2hc-LAT1 IC50 of L-leucine uptake) was 38 µM; in the assay on 4F2hc-LAT2 [12] (read-out: 4F2hc-LAT2 IC50 of L-leucine uptake), 221 µM; on human 4F2hc-LAT2 [2], 210 µM; on human LAT2 it was 39 µM; at human LAT1 [3], 9 µM; on human 4F2hc-LAT1 (setting [21]), 22 µM. The Km in the assay on 4F2hc-LAT1 [11] (read-out: 4F2hc-LAT1 KM of L-leucine uptake) was 25 ± 3 µM; with 4F2hc-LAT2 [12] (read-out: 4F2hc-LAT2 KM of L-leucine uptake), 249 ± 22 µM; in the assay on 4F2hc-LAT2 [13], 220 µM; with 4F2hc-LAT1 [4] (ref Friesema et al. (2001)), 46 µM; in the assay with 4F2hc-LAT1 [4] (ref Kanai et al. (1998)), 18.1 ± 3.4 µM; with 4F2hc-LAT1 [4] (ref Yanagida et al. (2001)), 19.7 ± 4.1 µM.

`Nc1cc(COc2c(Cl)cc(C[C@H](N)C(=O)O)cc2Cl)c2oc(-c3ccccc3)nc2c1` [JPH203, (S)-2-amino-3-(4-((5-amino-2-phenylbenzo [d]oxazol-7-yl)-methoxy)-3,5-dichlorophenyl)-propanoic acid]: the “IC50(Pichia-LAT2)/IC50(Pichia-LAT1) ratio” value at human LAT1 [14] is recorded as “about 4.9”. Moreover, the IC50 is 0.134 µM in the assay with 4F2hc-LAT1 [15]; 0.25 ± 0.04 µM in the assay with 4F2hc-LAT1 [16]; 0.12 ± 0.02 µM with 4F2hc-LAT1 [17]; over 10 µM on human 4F2hc-LAT2 [6] (ref Oda et al. (2010)); 0.79 ± 0.06 µM with 4F2hc-LAT1 [7]; 0.19 µM and 0.2 µM in the assay with 4F2hc-LAT1 [1] (host S2 cells, ref Endou et al. (2008)). Besides, the IC50 in the assay with 4F2hc-LAT1 [1] (host S2 cells, ref Oda et al. (2010)) is 0.14 µM; in the assay on 4F2hc-LAT1 [8] (ref Choi et al. (2017)), 1.31 ± 0.27 µM; with 4F2hc-LAT1 [18], 0.2 ± 0.03 µM; on human 4F2hc-LAT2 [2], 1.5 µM; in the assay with 4F2hc-LAT1 [19], 0.12 µM; on human LAT2, 1.7 µM. For the same molecule, the IC50 is 0.346 µM at human LAT1 [3], 0.177 µM with 4F2hc-LAT1 [20] and 0.197 µM at human 4F2hc-LAT1 (setting [21]). On human 4F2hc-LAT2 [6] (S2 cell-based assay, at 10 µM, ref Endou et al. (2008)), the “inhibition of human 4F2hc-LAT2” value is on record as “almost no inhibition”. In addition, the “IC50(S2-LAT2)/IC50(S2-LAT1) ratio” value with 4F2hc-LAT1 [1] (S2 cells, ref Oda et al. (2010)) is over 500. Further, the “IC50(Pichia-4F2hc-LAT2)/IC50(Pichia-4F2hc-LAT1) ratio” value at human 4F2hc-LAT1 (P. pastoris cell assay) is recorded as “about 7.6”. Besides, at human 4F2hc-LAT1 (P. pastoris cell assay), the “specificity for 4F2hc-LAT1 compared with 4F2hc-LAT2 (from IC50s)” value is on record as “about 7.6 fold”.
